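Cultured in 96-well plates, cells were exposed to test compound for 48 hours across five concentrations. GI50 = concentration required for 50% inhibition of growth.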 Activity calls are given as the source filed them. No stated cut-off is given here; in the data, active = GI50 up to about 1.1 µM and inactive = higher.

Some test systems named below: Hs-578T; K562; CCRF-CEM; NCI-H226; LOX IMVI; NCI/ADR-RES; T47D; SR; SW-620; HCT-116; SK-OV-3; CAKI-1; UACC-257; MDA-N; SF-539; HOP-92; ACHN; HCC 2998; HCT-15; M14.
What all share (experiment): inhibition of tumour cell growth, NCI panel, 48 h

In the case of `C/C=C/C=C/C1=NN(c2cccc(S(=O)(=O)O)c2)C2(C1)C(Cl)C(=O)N2c1nc2ccccc2s1` (stereo not given), the GI50 is 25.2 µM (inactive) with Hs-578T; 28.8 µM (inactive) with K562; 3.01 µM (inactive) with CCRF-CEM; 14.3 µM (inactive) with NCI-H226; 7.85 µM (inactive) with LOX IMVI; 27.2 µM (inactive) with NCI/ADR-RES. Also, the GI50 with T47D is 4.6 µM (inactive); with SR it was 18.9 µM (inactive); in the test with SW-620, 20.2 µM (inactive); in the test on HCT-116, 14.4 µM (inactive); in the test with SK-OV-3, 19.2 µM (inactive); with CAKI-1, 8.24 µM (inactive). Moreover, the GI50 with UACC-257 is 15.4 µM (inactive); in the test on MDA-N it was 15.5 µM (inactive); in the test on SF-539 it was 12.6 µM (inactive); with HOP-92, 24.5 µM (inactive); with ACHN, 15.4 µM (inactive); in the test on HCC 2998, 16.9 µM (inactive). Also, the GI50 in the test with HCT-15 is 14.5 µM; in the test with M14 it was 15.1 µM (inactive).

As for `O=C(O)c1nc(-c2ccccc2)ncc1-c1nnnn1-c1ccccc1`, the GI50 in the test with Hs-578T, with K562, in the test with CCRF-CEM, in the test on NCI-H226, with LOX IMVI and with NCI/ADR-RES was > 100 µM (inactive) in each case. Moreover, the GI50 with T47D, in the test on SR, with SW-620, in the test on HCT-116, with SK-OV-3 and in the test on CAKI-1 was > 100 µM (inactive) each time. For the same molecule, the GI50 with UACC-257, in the test with MDA-N, in the test with SF-539, with HOP-92, in the test on ACHN and with HCC 2998 was > 100 µM (inactive) in each case. In addition, the GI50 in the test with HCT-15 is over 100 µM; in the test with M14, > 100 µM (inactive).
